Results on 20 molecules are retold here after EPA's ToxValDB 9.5.

Data set [1] has as its system Rattus norvegicus. The note with it: for LC50 / LD50: acute.
In a further data set the test system is Mus musculus. The note with it: for LD50: acute.
The next data set has as its system Oryctolagus sp. The note with it: dermal, New Zealand; for LD50: acute.
The subject of another data set is Canidae. The note with it: chronic, oral, diet, Dog Other.
In data set [2] the test system is Rattus norvegicus.
The subject of data set [3] is Rattus norvegicus. The note with it: for NOEL: Hershberger, duration: 10 days, oral, gavage, Sprague-Dawley.
Data set [4] relates to Rattus norvegicus. The note with it: M/F; for LEL / NOEL: oral.
For data set [5], the system named is Rattus norvegicus. The note with it: subchronic, oral, M/F, Fischer 344; for NOEL: duration: 13 weeks, gavage.
Where [6] appears, read: duration: 1 years, M/F, liver cell enlargement.
Setting [7] is: duration: 2 years, M/F, cholinesterase inhibition.
Setting [8] is: duration: 1 years, M/F, Liver effects + organ weight changes.
Where [9] appears, read: duration: 2 years, M/F, liver toxicity.
Setting [10] is: M/F, reduced body weight gain, skeletal myopathy, slight anemia, bone marrow hyperplasia, increased serum sgot, sgpt, cpk.
[11] abbreviates: reproduction developmental, kidney, spleen, liver, and bone marrow toxicity.
Setting [12] is: duration: 2 years, M/F, elevated alkaline phosphatase + Increase in thyroid/body weight ratio + slight increase in liver weights.
The mark [13] stands for this setting: chronic, duration: 2 years, diet, increased liver weight.

“And” between values parts separate entries of the source, which are not always exact repeats. Identical values can stand only once.

Consider `Oc1cc(Cl)ccc1Cl` [2,5-Dichlorophenol], for which the LC50 in the data set on Rattus norvegicus [1] (inhalation, Spartan) is more than 185000 mg/m3. Besides, the LD50 (usually the dose at which mortality reaches 50%) with Rattus norvegicus [1] (oral, gavage, Wistar) was 2480 mg/kg; in the data set on Mus musculus (oral, gavage, CD1), ≥ 946 mg/kg and ≤ 1600 mg/kg; in the data set with Oryctolagus sp. (occlusive), more than 8000 mg/kg. The LOAEL (as a rule, the lowest dose or exposure tested at which an adverse effect was seen) in the data set on Rattus norvegicus [1] (reproduction developmental, duration: 4 weeks, inhalation, Sprague-Dawley) stood at 0.1 mg/L; in the data set with Oryctolagus sp. (reproduction developmental, duration: 21 days, non-occlusive) it was 1 mg/kg-day.
As to `C[Si](Cn1cncn1)(c1ccc(F)cc1)c1ccc(F)cc1` [Flusilazole], in the data set with Canidae (setting [6]), the LEL came to 0.7 mg/kg-day and the NOEL was determined as 0.2 mg/kg-day.
`CCCCCCCCCCCCCCC` [Pentadecane]: in the data set with Mus musculus (injection, intravenous), the LD50 turned out to be 3490 mg/kg.
In the data set with Canidae (setting [7]), `CCOP(=O)(NC(C)C)Oc1ccc(SC)c(C)c1` (stereo not given) [Fenamiphos] gave an LEL of 0.05 mg/kg-day and an NOEL of 0.025 mg/kg-day.
`Clc1ccccc1-c1nnc(-c2ccccc2Cl)nn1` [Clofentezine]: in the data set on Canidae (setting [8]), the LEL was 25 mg/kg-day and the NOEL came out at 1.25 mg/kg-day.
With `Nc1c(Cl)c(Cl)nc(C(=O)O)c1Cl` [Picloram], in the data set with Canidae (duration: 6 months, M/F, increased liver weight), the NOEL stood at 7 mg/kg-day. The LEL in the data set on Canidae (duration: 6 months, M, increased liver weight) worked out at 35 mg/kg-day.
On to `COc1nn(CSP(=S)(OC)OC)c(=O)s1` [Methidathion], for which, in the data set with Canidae (setting [9]), the LEL is 0.4 mg/kg-day and the NOEL amounted to 0.1 mg/kg-day.
In the data set with Canidae (setting [10]), `CC(C)C1(C)N=C(c2nc3ccccc3cc2C(=O)O)NC1=O` (stereo not given) [Imazaquin] showed an LEL of 125 mg/kg-day and an NOEL of 25 mg/kg-day.
Turning to `CCCCCCCCCCCCN` [1-Dodecanamine], the LD50 in the data set on Rattus norvegicus [1] (oral, gavage) is 1020 mg/kg; in the data set with Rattus norvegicus [1] (oral, gavage, Wistar), more than 2000 mg/kg; in the data set with Mus musculus (oral, gavage), 1160 mg/kg.
In the data set on Rattus norvegicus [1] (Inhalation, Fischer 344), `Clc1ccc(C(Cl)(Cl)Cl)cn1` [2-Chloro-5-trichloromethylpyridine] had an LC50 of more than 108 mg/m3. The LD50 in the data set with Rattus norvegicus [1] (oral, gavage, Sprague-Dawley) was ≥ 500 mg/kg and ≤ 1000 mg/kg. In addition, the NOAEL (in general, the highest tested level that showed no adverse finding) in the data set on Rattus norvegicus [1] (short-term, duration: 2 weeks, Inhalation, Fischer 344) amounted to 9.44 mg/m3; in the data set on Mus musculus (short-term, duration: 2 weeks, inhalation, B6C3F1), 9.44 mg/m3.
Turning to `C=C(Cl)CCl` [2,3-Dichloro-1-propene], the lowest-observed-adverse-effect level (LOAEL) in the data set with Rattus norvegicus [2] (short-term, duration: 11 days, inhalation, M/F, Fischer 344, respiratory) came out at 22.7 mg/m3.
As for `[Mo]` [Molybdenum], in the data set with Rattus norvegicus [2] (subchronic, duration: 90 days, oral, diet, M/F, Sprague-Dawley, renal), the NOAEL is 17 mg/kg-day.
`CC(C)Oc1cccc(NC(=O)c2ccccc2C(F)(F)F)c1` [Flutolanil]: the NOEL in the data set with Rattus norvegicus [3] (inactive + Negative + neither + negative) amounted to 1000 mg/kg-day. In addition, the LEL in the data set with Rattus norvegicus [4] (reproduction developmental, Decreased body weight and body weight gains in both doses increased liver weights at high dose) is 63.7 mg/kg-day.
As to `c1ccc(NNc2ccccc2)cc1` [1,2-Diphenylhydrazine], the NOAEL with Rattus norvegicus [2] (subchronic, duration: 13 weeks, oral, diet, M, Fischer 344, hepatic) was 4.8 mg/kg-day.
For the molecule `CC(C)OC(=O)Nc1cccc(Cl)c1` [Chlorpropham], in the data set on Rattus norvegicus [5] (duration: 90 days, diet, Clinical Observation: Pale + Body Weight Changes: decrease + Hematology: RBC decrease, HGB decrease, HCT decrease, MCV increase, MCH …), the NOAEL was less than 720 mg/kg-day. In the data set with Rattus norvegicus [4] (setting [11]), this molecule displayed an LEL of 150 mg/kg-day and an NOEL of 50 mg/kg-day.
For `Cc1[nH]c(=O)n(C(C)(C)C)c(=O)c1Cl` [Terbacil], in the data set with Canidae (setting [12]), the LEL stood at 6.25 mg/kg-day and the NOEL turned out to be 1.25 mg/kg-day.
On to `[S-]c1nc2ccccc2s1.[S-]c1nc2ccccc2s1.[Zn+2]` [Zinc 2-mercaptobenzothiazolate], for which the LD50 in the data set with Rattus norvegicus [1] (oral, Sprague-Dawley) was 5500 mg/kg; in the data set with Rattus norvegicus [1] (oral, gavage, Sprague-Dawley), 7500 mg/kg; with Oryctolagus sp., more than 2000 mg/kg; with Oryctolagus sp. (occlusive) it was more than 7940 mg/kg. For the same molecule, the NOAEL with Mus musculus (reproduction developmental, duration: 18 months, oral) is 1000 mg/kg-day.
In the case of `CC1(C)C(C=C(Cl)Cl)C1C(=O)OCc1cccc(Oc2ccccc2)c1` (stereo not given) [Permethrin], the NOAEL in the data set with Rattus norvegicus [2] (acute, duration: 1 days, oral, gavage, M/F, Long-Evans, neurological) is 25 mg/kg-day; with Rattus norvegicus [2] (subchronic, duration: 13 weeks, oral, diet, M/F, Sprague-Dawley, neurological) it was 15.5 mg/kg-day. Further, the NOEL with Rattus norvegicus [3] (inactive + Negative + Negative + neither + no effects on PPS, AST, testis/epididymal wt, serum testosterone, and liver wt increased 11% at …) worked out at 120 mg/kg-day; in the data set with Rattus norvegicus [4] (setting [13]), 5 mg/kg-day. Further, the LEL stood at 800 mg/kg-day in the data set on Rattus norvegicus [3] (uterotrophic, duration: 3 days, injection, subcutaneous, Active) and 25 mg/kg-day with Rattus norvegicus [4] (setting [13]).
With `CC(Cl)CCl` (stereo not given) [1,2-Dichloropropane], the NOEL with Rattus norvegicus [5] (Deaths + Body Weight Changes: decrease + Histopathology: Liver/centrilobular-Congestion Liver-Hepatic fatty change Liver/centrilobular -…) was found to be 250 mg/kg-day. The lowest observed adverse effect level (LOAEL) came to 462 mg/m3 with Rattus norvegicus [2] (short-term, duration: 2 weeks, inhalation, M/F, Fischer 344, respiratory); 100 mg/kg-day in the data set with Rattus norvegicus [2] (subchronic, duration: 13 weeks, oral, gavage, M, Sprague-Dawley, hematological); 69.3 mg/m3 with Rattus norvegicus [4] (subchronic, duration: 13 weeks, inhalation, hyperplasia of the nasal mucosa).
Take `C=CC(=O)NCO` [N-Methylolacrylamide]: the LD50 was 400 mg/kg with Rattus norvegicus [1] (oral, gavage, Fischer 344); 677 mg/kg with Mus musculus (oral, DD); 400 mg/kg in the data set on Mus musculus (oral, gavage, B6C3F1). Moreover, the NOAEL with Rattus norvegicus [1] (short-term, duration: 16 days, oral, gavage, Fischer 344) was determined as 50 mg/kg-day; in the data set on Rattus norvegicus [1] (short-term, duration: 28 days, oral, diet) it was 4 mg/kg-day; in the data set on Rattus norvegicus [1] (subchronic, duration: 90 days, oral, gavage, Fischer 344), 12.5 mg/kg-day; in the data set with Mus musculus (short-term, duration: 16 days, oral, gavage, B6C3F1), 100 mg/kg-day; in the data set on Mus musculus (subchronic, duration: 90 days, oral, gavage, B6C3F1) it was 12.5 mg/kg-day. In addition, the NOEL with Rattus norvegicus [5] (Deaths + Clinical Observation: Hind limb paresis + Functional Observational Battery: Hind limb-grip strength decrease Auditory startle …) is less than 12.5 mg/kg-day.
